Reference: ChEMBL document CHEMBL1141566, “Synthesis and antitumor evaluation of bis aza-anthracene-9,10-diones and bis aza-anthrapyrazole-6-ones” (2008)

Tests used:
HT-29 [1] = test: Cytotoxicity against human HT29 cells after 72 hrs; assay type: functional; settings: HT-29, 72 h
[2] = Ratio of Kapp for synthetic poly(dA-dT)]2 oligonucleotide to Kapp for synthetic poly(dG-dC)]2 oligonucleotide
HT-29 [3] = test: Effect on apoptosis in human HT29 PI+/AnnV+ cells after 24 hrs by biparametric flow cytometric analysis; assay type: functional; settings: HT-29, 24 h, read-out: LC50 (the source's name)
HT-29 [4] = test: Effect on apoptosis in human HT29 PI-/AnnV- cells after 24 hrs by biparametric flow cytometric analysis; assay type: functional; settings: HT-29, 24 h, read-out: LC50 (the source's name)
HT-29 [5] = test: Effect on apoptosis in human HT29 PI-/AnnV+ cells after 24 hrs by biparametric flow cytometric analysis; assay type: functional; settings: HT-29, 24 h, read-out: LC50 (the source's name)
HT-29 [6] = test: Effect on apoptosis in human HT29 PI-/AnnV+ cells after 6 hrs by biparametric flow cytometric analysis; assay type: functional; settings: HT-29, 6 h, read-out: LC50 (the source's name)
HT-29 [7] = test: Effect on apoptosis in human HT29 PI+/AnnV+ cells after 12 hrs by biparametric flow cytometric analysis; assay type: functional; settings: HT-29, 12 h, read-out: LC50 (the source's name)
HT-29 [8] = test: Effect on apoptosis in human HT29 PI+/AnnV- cells after 24 hrs by biparametric flow cytometric analysis; assay type: functional; settings: HT-29, 24 h, read-out: LC50 (the source's name)
HT-29 [9] = test: Effect on apoptosis in human HT29 PI+/AnnV- cells after 6 hrs by biparametric flow cytometric analysis; assay type: functional; settings: HT-29, 6 h, read-out: LC50 (the source's name)
HT-29 [10] = test: Effect on apoptosis in human HT29 PI-/AnnV- cells after 12 hrs by biparametric flow cytometric analysis; assay type: functional; settings: HT-29, 12 h, read-out: LC50 (the source's name)
HT-29 [11] = test: Effect on apoptosis in human HT29 PI+/AnnV+ cells after 6 hrs by biparametric flow cytometric analysis; assay type: functional; settings: HT-29, 6 h, read-out: LC50 (the source's name)
HT-29 [12] = test: Effect on apoptosis in human HT29 PI+/AnnV- cells after 12 hrs by biparametric flow cytometric analysis; assay type: functional; settings: HT-29, 12 h, read-out: LC50 (the source's name)
HT-29 [13] = test: Effect on apoptosis in human HT29 PI-/AnnV- cells after 6 hrs by biparametric flow cytometric analysis; assay type: functional; settings: HT-29, 6 h, read-out: LC50 (the source's name)
HT-29 [14] = test: Effect on apoptosis in human HT29 PI-/AnnV+ cells after 12 hrs by biparametric flow cytometric analysis; assay type: functional; settings: HT-29, 12 h, read-out: LC50 (the source's name)

Question: Which GI50 (HT-29 [1]) does the source give for CCN(CC)CCCNc1ccc(NCCCN(C)CCCNc2ccc(NCCCN(CC)CC)c3c2C(=O)c2cnccc2C3=O)c2c1C(=O)c1ccncc1C2=O here?
Answer: The GI50 was 83 µM.

Question: What about the LC50 (concentration killing 50% of cells) (HT-29 [1]) of the same molecule?
Answer: Its LC50 (concentration killing 50% of cells) is over 100 µM.

Question: What about the TGI (HT-29 [1]) of the same molecule?
Answer: The TGI was over 100 µM.

Question: And the Ratio [2]?
Answer: The Ratio was 1.7.

Question: Which GI50 (HT-29 [1]) does the source give for CN(C)CCCn1nc2c3c(c(NCCCN(C)CCCNc4ccc5c6c(nn5CCCN(C)C)-c5cnccc5C(=O)c46)ccc31)C(=O)c1ccncc1-2 here?
Answer: The GI50 was 1.6 µM.

Question: What about the LC50 (concentration killing 50% of cells) (HT-29 [1]) of the same molecule?
Answer: Its LC50 (concentration killing 50% of cells) is over 100 µM.

Question: And the TGI (HT-29 [1])?
Answer: The TGI was over 100 µM.

Question: What does the source list for NCCNc1ccc(NCCN)c2c1C(=O)c1ccncc1C2=O [PIXANTRONE]?
Answer: CC50 (HT-29 [3]): 6.2 µM; CC50 (HT-29 [4]): 41.6 µM; CC50 (HT-29 [5]): 41 µM; CC50 (HT-29 [6]): 32.5 µM; CC50 (HT-29 [7]): 6.1 µM; CC50 (HT-29 [8]): 11.2 µM; CC50 (HT-29 [9]): 4.8 µM; CC50 (HT-29 [10]): 50.4 µM; CC50 (HT-29 [11]): 2.3 µM; CC50 (HT-29 [12]): 5.1 µM; GI50 (HT-29 [1]): 0.0012 µM; TGI (HT-29 [1]): 3.2 µM; CC50 (HT-29 [13]): 60.4 µM; CC50 (HT-29 [14]): 38.4 µM

Question: For CCN(CC)CCn1nc2c3c(c(NCCCN(C)CCCNc4ccc5c6c(nn5CCN(CC)CC)-c5ccncc5C(=O)c46)ccc31)C(=O)c1cnccc1-2, which GI50 (HT-29 [1]) is on record?
Answer: The GI50 was 0.4 µM.

Question: And the LC50 (concentration killing 50% of cells) (HT-29 [1])?
Answer: The LC50 (concentration killing 50% of cells) was over 100 µM.

Question: And the TGI (HT-29 [1])?
Answer: The TGI was over 100 µM.

Question: Which GI50 (HT-29 [1]) does the source give for CN(C)CCCn1nc2c3c(c(NCCCN(C)CCCNc4ccc5c6c(nn5CCCN(C)C)-c5ccncc5C(=O)c46)ccc31)C(=O)c1cnccc1-2 here?
Answer: The GI50 was 40 µM.

Question: What about the LC50 (concentration killing 50% of cells) (HT-29 [1]) of the same molecule?
Answer: Its LC50 (concentration killing 50% of cells) is over 100 µM.

Question: And the TGI (HT-29 [1])?
Answer: Its TGI is over 100 µM.

Question: Which GI50 (HT-29 [1]) does the source give for CCN(CC)CCn1nc2c3c(c(NCCCN(C)CCCNc4ccc5c6c(nn5CCN(CC)CC)-c5cnccc5C(=O)c46)ccc31)C(=O)c1ccncc1-2 here?
Answer: The GI50 was 0.001 µM.

Question: And the LC50 (concentration killing 50% of cells) (HT-29 [1])?
Answer: Its LC50 (concentration killing 50% of cells) is 97 µM.

Question: And the TGI (HT-29 [1])?
Answer: Its TGI is 4.5 µM.

Question: What does the source list for CN(C)CCNc1ccc(NCCCN(C)CCCNc2ccc(NCCN(C)C)c3c2C(=O)c2ccncc2C3=O)c2c1C(=O)c1cnccc1C2=O?
Answer: GI50 (HT-29 [1]): > 100 µM; Ratio [2]: 7.7
